Assay results taken from patent publication US20260092074A1, “Annelated Pyridines as Steroidogenesis Inhibitors, Preparation Method and Use Thereof” (Guangzhou Vinnocent Pharmaceutical Limited, priority 2022, published 2026).

Columns and labels:
[1] = molecular target: T1, human CYP11B2 (Homo sapiens, UniProt P19099); experiment: Inhibition of hCYP11B2 in transfected V79 cells; assay type: cell-based; conditions: hamster V79 cells expressing human CYP11B2; substrate 11-deoxycorticosterone 200 nM
T1 construct: expressed in transfected cells
T1 sequence (P19099 25-503): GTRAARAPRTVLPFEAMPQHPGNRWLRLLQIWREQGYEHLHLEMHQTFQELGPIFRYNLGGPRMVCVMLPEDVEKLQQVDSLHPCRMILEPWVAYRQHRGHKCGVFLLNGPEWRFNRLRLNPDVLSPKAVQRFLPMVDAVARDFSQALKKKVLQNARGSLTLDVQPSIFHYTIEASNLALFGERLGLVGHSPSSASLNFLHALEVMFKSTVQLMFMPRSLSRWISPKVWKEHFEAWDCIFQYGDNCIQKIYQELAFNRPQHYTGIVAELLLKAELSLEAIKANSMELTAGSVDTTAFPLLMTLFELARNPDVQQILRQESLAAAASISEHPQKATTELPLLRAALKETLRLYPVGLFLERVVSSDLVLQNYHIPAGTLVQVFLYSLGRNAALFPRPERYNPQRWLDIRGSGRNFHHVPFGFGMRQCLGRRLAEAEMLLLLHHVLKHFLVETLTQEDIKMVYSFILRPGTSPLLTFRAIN
In short: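 The substrate (200 nM, 30 min) was added after a 2 hour compound pre-incubation in lentivirus-transduced V79 cells stably expressing human CYP11B2 plus rat NADPH-P450 reductase.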

[2] = molecular target: T2, human CYP11B1 (Homo sapiens, UniProt P15538); experiment: Inhibition of hCYP11B1 in transfected V79 cells; assay type: cell-based; conditions: hamster V79 cells expressing human CYP11B1; substrate 11-deoxycortisol 200 nM
T2 construct: expressed in transfected cells
T2 sequence (P15538 25-503): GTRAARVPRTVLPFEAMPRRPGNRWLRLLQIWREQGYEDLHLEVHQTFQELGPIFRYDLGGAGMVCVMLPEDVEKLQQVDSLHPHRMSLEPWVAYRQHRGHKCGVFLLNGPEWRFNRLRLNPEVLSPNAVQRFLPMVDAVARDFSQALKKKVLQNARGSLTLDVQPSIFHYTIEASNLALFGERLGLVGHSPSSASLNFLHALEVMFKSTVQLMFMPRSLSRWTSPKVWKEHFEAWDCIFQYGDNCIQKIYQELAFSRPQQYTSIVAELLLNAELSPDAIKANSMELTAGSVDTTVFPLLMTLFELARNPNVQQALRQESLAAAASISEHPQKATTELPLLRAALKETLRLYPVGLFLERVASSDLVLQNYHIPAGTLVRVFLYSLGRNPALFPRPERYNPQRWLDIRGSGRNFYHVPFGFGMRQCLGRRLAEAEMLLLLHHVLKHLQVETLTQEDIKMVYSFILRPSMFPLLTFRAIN
In short: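 Reactions started with 200 nM 11-deoxycortisol, ran for 30 min and were stopped with ethyl acetate, after a 2 h compound preincubation. The host was stably transfected V79 hamster cells carrying human CYP11B1 plus rat P450 reductase. Percent inhibition, from LC-MS/MS or HPLC (260 nm) quantitation of substrate and product, gave the IC50.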

COc1ccc(S(=O)(=O)N2CC(C(=O)N3CCOc4c(-c5ccc(C#N)cc5)cncc43)C2)cc1 [O67, 4-(4-(1-((4-Methoxyphenyl)sulfonyl)azetidine-3-carbonyl)-3,4-dihydro-2H-pyrido[4,3-b][1, 4]oxazin-8-yl)benzonitrile]
IC50 [1]: 2.7 nM
IC50 [2]: 496 nM

N#Cc1ccc(-c2cncc3c2CCN3S(=O)(=O)c2ccc(F)cc2)cc1 [C7, 4-(1-((4-Fluorophenyl)sulfonyl)-2,3-dihydro-1H-pyrrolo[2,3-c]pyridin-4-yl)benzonitrile]
IC50 [1]: 0.15 nM
IC50 [2]: 1.9 nM

N#Cc1ccc(S(=O)(=O)N2CCOc3c(-c4cc5cc(C#N)ccc5o4)cncc32)cc1 [O129, 2-(4-((4-Cyanophenyl)sulfonyl)-3,4-dihydro-2H-pyrido[4,3-b][1,4]oxazin-8-yl)benzofuran-5-carbonitril]
IC50 [1]: 1.9 nM
IC50 [2]: 243 nM

N#Cc1ccc(-c2cncc3c2OCCN3S(=O)(=O)c2ccc(Cl)cc2)cc1 [O6, 4-(4-((4-Chlorophenyl)sulfonyl)-3,4-dihydro-2H-pyrido[4,3-b][1,4]oxazin-8-yl)benzonitrile]
IC50 [1]: 0.41 nM
IC50 [2]: 0.66 nM

Cn1cnc2cncc(-c3ccc(C#N)cc3)c21 [N6, 4-(1-Methyl-1H-imidazo[4,5-c]pyridin-7-yl)benzonitrile]
IC50 [1]: 655 nM
IC50 [2]: 661 nM

N#Cc1ccc(-c2cncc3c2CCN3C(=O)Cc2ccc(Br)cc2)cc1 [C73, 4-(1-(2-(4-Bromophenyl)acetyl)-2,3-dihydro-1H-pyrrolo[2,3-c]pyridin-4-yl)benzonitrile]
IC50 [1]: 11 nM
IC50 [2]: 124 nM

Cc1cccc(S(=O)(=O)N2CCOc3c(-c4ccc(C#N)cc4)cncc32)c1 [O5, 4-(4-(m-Tolylsulfonyl)-3,4-dihydro-2H-pyrido[4,3-b][1,4]oxazin-8-yl)benzonitrile]
IC50 [1]: 0.23 nM
IC50 [2]: 0.48 nM

COc1ccc(C(=O)N2CCc3c(-c4cc5cc(C#N)ccc5o4)cncc32)cc1 [C79, 2-(1-(4-Methoxybenzoyl)-2,3-dihydro-1H-pyrrolo[2,3-c]pyridin-4-yl)benzofuran-5-carbo nitrile]
IC50 [1]: 46 nM
IC50 [2]: 2950 nM

N#Cc1ccc(C(=O)N2CC(S(=O)(=O)N3CCSc4c(-c5ccc(C#N)cc5)cncc43)C2)cc1 [S70, 4-(4-((1-(4-Cyanobenzoyl)azetidin-3-yl)sulfonyl)-3,4-dihydro-2H-pyrido[4,3-b][1,4]thiazin-8-yl)benzonitrile]
IC50 [1]: 1.4 nM
IC50 [2]: 49 nM

N#Cc1ccc(-c2cncc3c2CCN3S(=O)(=O)c2cccc3ccccc23)cc1 [C18, 4-(1-(Naphthalen-1-ylsulfonyl)-2,3-dihydro-1H-pyrrolo[2,3-c]pyridin-4-yl)benzonitrile]
IC50 [1]: 0.69 nM
IC50 [2]: 0.61 nM

N#Cc1ccc(-c2cncc3c2SCCN3C(=O)c2ccc(Cl)cc2)cc1 [S92, 4-(4-(4-Chlorobenzoyl)-3,4-dihydro-2H-pyrido[4,3-b][1,4]thiazin-8-yl)benzonitrile]
IC50 [1]: 13 nM
IC50 [2]: 856 nM

N#Cc1ccc(-c2cncc3c2SCCN3S(=O)(=O)c2ccc(C#N)cc2)cc1 [S21, 4-((8-(4-Cyanophenyl)-2,3-dihydro-4H-pyrido[4,3-b][1,4]thiazin-4-yl)sulfonyl)benzonitrile]
IC50 [1]: 0.3 nM
IC50 [2]: 15 nM

N#CN1CC2(CC(S(=O)(=O)N3CCSc4c(-c5cc6cc(Cl)ccc6o5)cncc43)C2)C1 [S67, 6-((8-(5-chlorobenzofuran-2-yl)-2,3-dihydro-4H-pyrido[4,3-b][1,4]thiazin-4-yl)sulfonyl)-2-azaspiro[3.3]heptane-2-carbonitrile]
IC50 [1]: 3.2 nM
IC50 [2]: 603 nM

CC(=O)Nc1ccccc1C(=O)N1CCSc2c(-c3ccc(C#N)cc3)cncc21 [S86, N-(2-(8-(4-Cyanophenyl)-3,4-dihydro-2H-pyrido[4,3-b][1,4]thiazine-4-carbonyl)phenyl) acetamide]
IC50 [1]: 22 nM
IC50 [2]: 1540 nM

N#Cc1ccc(-c2cncc3c2OCCN3S(=O)(=O)c2cccc([N+](=O)[O-])c2)cc1 [O10, 4-(4-((3-Nitrophenyl)sulfonyl)-3,4-dihydro-2H-pyrido[4,3-b][1,4]oxazin-8-yl)benzonitrile]
IC50 [1]: 0.41 nM
IC50 [2]: 2.8 nM

COc1ccc(CCC(=O)N2CCOc3c(-c4ccc(C#N)cc4)cncc32)cc1 [O51, 4-(4-(3-(4-Methoxyphenyl)propanoyl)-3,4-dihydro-2H-pyrido[4,3-b][1,4]oxazin-8-yl)benzo nitrile]
IC50 [1]: 0.7 nM
IC50 [2]: 24 nM

N#Cc1ccc(-c2cncc3c2OCCN3C(=O)Cc2ccc(Cl)cc2)cc1 [O38, 4-(4-(2-(4-Chlorophenyl)acetyl)-3,4-dihydro-2H-pyrido[4,3-b][1,4]oxazin-8-yl)benzonitrile]
IC50 [1]: 16.8 nM
IC50 [2]: 559 nM

COc1cccc(CC(=O)N2CCOc3c(-c4ccc(C#N)cc4)cncc32)c1 [O41, 4-(4-(2-(3-Methoxyphenyl)acetyl)-3,4-dihydro-2H-pyrido[4,3-b][1,4]oxazin-8-yl)benzonitrile]
IC50 [1]: 1.8 nM
IC50 [2]: 52 nM

N#CC12CC(S(=O)(=O)N3CCSc4c(-c5cc6cc(Cl)ccc6o5)cncc43)(C1)C2 [S65, 3-((8-(5-Chlorobenzofuran-2-yl)-2,3-dihydro-4H-pyrido[4,3-b][1,4]thiazin-4-yl)sulfonyl)bicyclo[1.1.1]pentane-1-carbonitrile]
IC50 [1]: 5 nM
IC50 [2]: 783 nM

N#Cc1ccc(-c2cncc3c2OCCN3C(=O)C2CN(S(=O)(=O)c3cccc(C#N)c3)C2)cc1 [O74, 3-((3-(8-(4-Cyanophenyl)-3,4-dihydro-2H-pyrido[4,3-b][1,4]oxazine-4-carbonyl)azetidin-1-yl)sulfonyl)benzonitrile]
IC50 [1]: 1.3 nM
IC50 [2]: 99 nM

N#Cc1ccc(-c2cncc3c2SCCN3S(=O)(=O)c2cccc(C#N)c2)cc1 [S20, 3-((8-(4-Cyanophenyl)-2,3-dihydro-4H-pyrido[4,3-b][1,4]thiazin-4-yl)sulfonyl)benzonitrile]
IC50 [1]: 0.1 nM
IC50 [2]: 3.1 nM

N#Cc1ccc(-c2cncc3c2CCN3S(=O)(=O)c2ccc(C#N)cc2)cc1 [C15, 4-((4-(4-Cyanophenyl)-2,3-dihydro-1H-pyrrolo[2,3-c]pyridin-1-yl)sulfonyl)benzonitrile]
IC50 [1]: 0.28 nM
IC50 [2]: 0.16 nM

N#Cc1ccc(CN2CC(S(=O)(=O)N3CCOc4c(-c5ccc(C#N)cc5)cncc43)C2)cc1 [O121, 4-(4-((1-(4-Cyanobenzyl)azetidin-3-yl)sulfonyl)-3,4-dihydro-2H-pyrido[4,3-b][1,4]oxazin-8-yl)benzonitrile]
IC50 [1]: 0.4 nM
IC50 [2]: 36 nM

COc1ccc(S(=O)(=O)N2CCSc3c(-c4cccc(C#N)c4)cncc32)cc1 [S27, 3-(4-((4-Methoxyphenyl)sulfonyl)-3,4-dihydro-2H-pyrido[4,3-b][1,4]thiazin-8-yl)benzonitrile]
IC50 [1]: 0.7 nM
IC50 [2]: 2.9 nM

N#CN1CCN(c2cncc3c2OCCN3C(=O)C2CN(Cc3cccc(F)c3)C2)CC1 [O98, 4-(4-(1-(3-Fluorobenzyl)azetidine-3-carbonyl)-3,4-dihydro-2H-pyrido[4,3-b][1,4]oxazin-8-yl)piperazine-1-carbonitrile]
IC50 [1]: 46 nM
IC50 [2]: 677 nM

N#Cc1ccc(-c2cncc3c2SCCN3S(=O)(=O)c2cccc([N+](=O)[O-])c2)cc1 [S18, 4-(4-((3-Nitrophenyl)sulfonyl)-3,4-dihydro-2H-pyrido[4,3-b][1,4]thiazin-8-yl)benzonitrile]
IC50 [1]: 0.1 nM
IC50 [2]: 2 nM

N#Cc1ccc(-c2cncc3c2OCCN3S(=O)(=O)C2CN(Cc3cccc(F)c3)C2)cc1 [O122, 4-(4-((1-(3-Fluorobenzyl)azetidin-3-yl)sulfonyl)-3,4-dihydro-2H-pyrido[4,3-b][1,4]oxazin-8-yl)benzonitrile]
IC50 [1]: 0.8 nM
IC50 [2]: 59 nM

N#Cc1ccc(-c2cncc3c2ccn3C(=O)c2ccccc2C(F)(F)F)cc1 [E26, 4-(1-(2-(Trifluoromethyl)benzoyl)-1H-pyrrolo[2,3-c]pyridin-4-yl)benzonitrile]
IC50 [1]: 3.9 nM
IC50 [2]: 88 nM

N#Cc1ccc(-c2cncc3c2OCCN3C(=O)C(F)(F)F)cc1 [O35, 4-(4-(2,2,2-Trifluoroacetyl)-3,4-dihydro-2H-pyrido[4,3-b][1,4]oxazin-8-yl)benzonitrile]
IC50 [1]: 0.9 nM
IC50 [2]: 101 nM
